{
  "source": "ChEMBL document CHEMBL5154845",
  "about": "“Dual-acting antitumor agents targeting the A2A adenosine receptor and histone deacetylases: Design and synthesis of 4-(furan-2-yl)-1H-pyrazolo[3,4-d]pyrimidin-6-amine derivatives” (Eur J Med Chem, 2022)",
  "key": {"[1]": {"assay": "Mean residence time in male ICR mouse at 5 mg/kg, iv measured up to 24 hrs by LC-MS/MS analysis", "assay_type": "ADME, organism-based", "conditions": "in vivo"}, "MC-38 [2]": {"tested_on": "MC-38", "assay": "Antitumor activity against mouse MC38 cells xenografted in C57 mouse assessed as tumor growth inhibition at 30 mg/kg, ip administered twice a day", "assay_type": "functional", "conditions": "read-out: TGI"}, "Adenosine receptor A1": {"target": "T1, Adenosine receptor A1 (Homo sapiens, UniProt P30542)", "T1 sequence (P30542 whole entry)": "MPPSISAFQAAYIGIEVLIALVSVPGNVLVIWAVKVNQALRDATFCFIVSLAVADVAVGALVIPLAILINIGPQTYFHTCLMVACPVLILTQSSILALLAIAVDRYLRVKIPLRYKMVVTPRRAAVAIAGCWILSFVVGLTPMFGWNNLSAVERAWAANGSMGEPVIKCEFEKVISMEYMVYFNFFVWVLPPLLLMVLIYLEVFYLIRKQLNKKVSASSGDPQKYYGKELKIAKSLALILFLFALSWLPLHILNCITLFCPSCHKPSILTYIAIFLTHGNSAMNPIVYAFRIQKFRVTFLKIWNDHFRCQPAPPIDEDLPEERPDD", "assay": "Displacement of [3H]DPCPX from human A1AR incubated for 60 mins by scintillation counter analysis"}, "[3]": {"assay": "Elimination rate constant in male ICR mouse at 20 mg/kg, ip measured up to 24 hrs by LC-MS/MS analysis", "assay_type": "ADME, organism-based", "conditions": "in vivo"}, "MC-38 [4]": {"tested_on": "MC-38", "assay": "Antiproliferative activity against mouse MC38 cells after 72 hrs by CCK-8 assay", "assay_type": "functional"}, "[5]": {"assay": "Half-life in male ICR mouse at 5 mg/kg, iv measured up to 24 hrs by LC-MS/MS analysis", "assay_type": "ADME, organism-based", "conditions": "in vivo"}, "[6]": {"assay": "Mean residence time in male ICR mouse at 20 mg/kg, po measured up to 24 hrs by LC-MS/MS analysis", "assay_type": "ADME, organism-based", "conditions": "in vivo"}, "CT26": {"tested_on": "CT26", "assay": "Antiproliferative activity against mouse CT26 cells after 72 hrs by CCK-8 assay", "assay_type": "functional"}, "[7]": {"assay": "Elimination rate constant in male ICR mouse at 20 mg/kg, po measured up to 24 hrs by LC-MS/MS analysis", "assay_type": "ADME, organism-based", "conditions": "in vivo"}, "MC38 [8]": {"tested_on": "MC38", "assay": "Inhibition of HDAC in mouse MC38 cells assessed as increase in H4 acetylation at 0.1 to 5 uM measured by western blot analysis", "assay_type": "cell-based", "conditions": "dose 0.1-5 µM"}, "[9]": {"assay": "Bioavailability in male ICR mouse at 20 mg/kg,ip measured up to 24 hrs by LC-MS/MS analysis", "assay_type": "ADME, organism-based", "conditions": "in vivo"}, "[10]": {"assay": "Cmax in male ICR mouse at 5 mg/kg, iv measured up to 24 hrs by LC-MS/MS analysis", "assay_type": "ADME, organism-based", "design": "dose 5 mg/kg, time < 24 hrs, route iv", "conditions": "in vivo"}, "[11]": {"assay": "Half-life in male ICR mouse at 20 mg/kg, ip measured up to 24 hrs by LC-MS/MS analysis", "assay_type": "ADME, organism-based", "conditions": "in vivo"}, "MC38 [12]": {"tested_on": "MC38", "assay": "Inhibition of HDAC in mouse MC38 cells assessed as increase in H3 acetylation at 0.1 to 5 uM measured by western blot analysis", "assay_type": "cell-based", "conditions": "dose 0.1-5 µM"}, "Adenosine receptor A2a": {"target": "Adenosine receptor A2a (Homo sapiens, UniProt P29274)", "sequence (P29274 whole entry)": "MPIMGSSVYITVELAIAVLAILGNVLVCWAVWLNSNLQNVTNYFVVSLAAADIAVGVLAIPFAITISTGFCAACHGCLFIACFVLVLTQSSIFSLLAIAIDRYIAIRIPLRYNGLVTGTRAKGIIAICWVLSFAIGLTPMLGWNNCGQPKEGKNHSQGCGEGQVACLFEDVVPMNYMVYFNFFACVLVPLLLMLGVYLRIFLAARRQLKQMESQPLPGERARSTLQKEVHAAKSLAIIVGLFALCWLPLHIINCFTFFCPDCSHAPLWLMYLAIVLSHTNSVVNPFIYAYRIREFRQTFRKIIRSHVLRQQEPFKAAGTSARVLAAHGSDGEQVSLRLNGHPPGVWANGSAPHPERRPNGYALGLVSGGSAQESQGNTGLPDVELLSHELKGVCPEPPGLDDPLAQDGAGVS", "assay": "Displacement of [3H][…] from human A2AAR incubated for 60 mins by scintillation counter analysis"}, "[13]": {"target": "T2, Protein deacetylase HDAC6 (Homo sapiens, UniProt Q9UBN7)", "T2 sequence (Q9UBN7 whole entry)": "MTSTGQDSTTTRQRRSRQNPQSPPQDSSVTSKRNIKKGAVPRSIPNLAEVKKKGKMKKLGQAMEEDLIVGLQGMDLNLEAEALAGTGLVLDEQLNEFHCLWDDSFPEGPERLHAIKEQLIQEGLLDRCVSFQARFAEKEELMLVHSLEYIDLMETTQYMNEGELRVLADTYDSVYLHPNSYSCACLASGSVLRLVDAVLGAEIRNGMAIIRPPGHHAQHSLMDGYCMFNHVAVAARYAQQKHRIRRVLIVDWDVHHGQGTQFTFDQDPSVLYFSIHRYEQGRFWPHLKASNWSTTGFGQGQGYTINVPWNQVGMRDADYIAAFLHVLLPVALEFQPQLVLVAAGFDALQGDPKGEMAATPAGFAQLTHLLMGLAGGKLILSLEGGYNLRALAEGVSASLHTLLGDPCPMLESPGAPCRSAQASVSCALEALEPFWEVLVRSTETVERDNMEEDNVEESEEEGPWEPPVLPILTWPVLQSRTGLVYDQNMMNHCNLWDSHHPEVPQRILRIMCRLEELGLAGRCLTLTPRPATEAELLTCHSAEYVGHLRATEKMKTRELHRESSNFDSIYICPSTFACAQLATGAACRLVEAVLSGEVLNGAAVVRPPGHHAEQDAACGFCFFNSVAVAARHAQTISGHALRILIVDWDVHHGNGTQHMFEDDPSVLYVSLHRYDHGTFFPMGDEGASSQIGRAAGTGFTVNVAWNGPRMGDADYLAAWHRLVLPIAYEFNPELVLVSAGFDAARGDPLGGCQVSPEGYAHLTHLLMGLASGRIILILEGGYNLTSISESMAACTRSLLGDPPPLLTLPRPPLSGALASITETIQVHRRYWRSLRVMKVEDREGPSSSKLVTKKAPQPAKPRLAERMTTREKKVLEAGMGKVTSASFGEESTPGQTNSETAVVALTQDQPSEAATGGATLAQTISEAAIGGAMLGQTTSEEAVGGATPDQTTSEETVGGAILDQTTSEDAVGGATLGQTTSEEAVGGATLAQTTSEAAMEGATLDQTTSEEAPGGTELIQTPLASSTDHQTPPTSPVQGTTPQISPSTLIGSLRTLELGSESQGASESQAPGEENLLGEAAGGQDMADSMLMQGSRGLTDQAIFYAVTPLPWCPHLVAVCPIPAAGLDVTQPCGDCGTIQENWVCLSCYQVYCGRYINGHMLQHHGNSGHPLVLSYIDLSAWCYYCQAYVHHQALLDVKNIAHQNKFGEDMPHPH", "assay": "Inhibition of HDAC6 (unknown origin) using trypsin and LGK(Ac)-AMC as substrates incubated for 1 hr and measured by fluorescence assay"}, "[14]": {"assay": "Half-life in male ICR mouse at 20 mg/kg, po measured up to 24 hrs by LC-MS/MS analysis", "assay_type": "ADME, organism-based", "conditions": "in vivo"}, "[15]": {"assay": "Oral bioavailability in male ICR mouse at 20 mg/kg measured up to 24 hrs by LC-MS/MS analysis", "assay_type": "ADME, organism-based", "conditions": "in vivo"}, "MC-38 [16]": {"tested_on": "MC-38", "assay": "Antitumor activity against mouse MC38 cells xenografted in C57 mouse assessed as tumor growth inhibition at 90 mg/kg, po administered twice a day", "assay_type": "functional", "conditions": "read-out: TGI"}, "[17]": {"assay": "Tmax in male ICR mouse at 20 mg/kg, po measured up to 24 hrs by LC-MS/MS analysis", "assay_type": "ADME, organism-based", "conditions": "in vivo"}, "[18]": {"assay": "Tmax in male ICR mouse at 20 mg/kg, ip measured up to 24 hrs by LC-MS/MS analysis", "assay_type": "ADME, organism-based", "conditions": "in vivo"}, "[19]": {"assay": "AUC (0 to t) in male ICR mouse at 20 mg/kg, po measured up to 24 hrs by LC-MS/MS analysis", "assay_type": "ADME, organism-based", "design": "time < 24 hrs, dose 20 mg/kg, route po", "conditions": "in vivo"}},
  "note": "Activity calls are given as the source filed them. The calls are words filed in the database; no cut-off is given here.",
  "data": [
    {"smiles": "Nc1nc(-c2ccco2)c2cnn(CCc3ccc(C(=O)Nc4ccccc4N)cc3)c2n1", "values": [
      {"measurement": "MRT", "setting": "[1]", "value": 23.4, "unit": "min"},
      {"measurement": "inhibition in vivo at 30 mg/kg", "setting": "MC-38 [2]", "value": 68, "unit": "%"},
      {"measurement": "Ki", "setting": "Adenosine receptor A1", "value": 503, "unit": "nM"},
      {"measurement": "k el at 24 h", "setting": "[3]", "value": 0.000234, "unit": "s⁻¹"},
      {"measurement": "GI50", "setting": "MC-38 [4]", "value": 290, "unit": "nM"},
      {"measurement": "half-life", "setting": "[5]", "value": 23.3, "unit": "min"},
      {"measurement": "MRT", "setting": "[6]", "value": 77.4, "unit": "min"},
      {"measurement": "GI50", "setting": "CT26", "value": 380, "unit": "nM"},
      {"measurement": "k el at 24 h", "setting": "[7]", "value": 0.000108, "unit": "s⁻¹"},
      {"measurement": "inhibition", "setting": "MC38 [8]", "value": "Active"},
      {"measurement": "bioavailability", "setting": "[9]", "value": 119, "unit": "%"},
      {"measurement": "Cmax", "setting": "[10]", "value": 4700, "unit": "ng/mL"},
      {"measurement": "half-life", "setting": "[11]", "value": 49.8, "unit": "min"},
      {"measurement": "inhibition", "setting": "MC38 [12]", "value": "Active"},
      {"measurement": "Ki", "setting": "Adenosine receptor A2a", "value": 163, "unit": "nM"},
      {"measurement": "IC50", "setting": "[13]", "value": "> 10000", "unit": "nM"},
      {"measurement": "half-life", "setting": "[14]", "value": 134, "unit": "min"},
      {"measurement": "bioavailability", "setting": "[15]", "value": 43, "unit": "%"},
      {"measurement": "inhibition in vivo at 90 mg/kg", "setting": "MC-38 [16]", "value": 44, "unit": "%"},
      {"measurement": "Tmax", "setting": "[17]", "value": 20, "unit": "min"},
      {"measurement": "Tmax", "setting": "[18]", "value": 15, "unit": "min"},
      {"measurement": "AUC(0-t) at 24 h", "setting": "[19]", "value": 3600, "unit": "ng·h/mL"}
    ]}
  ]
}
